Like-named read-outs stand apart in the source and are kept apart here.
What was measured:
[1] = pH 6
[2] = SNAC solubility vs SNAC control, hydrotrope 200 mg/mL, pH 6
[3] = hydrotrope 200 mg/mL in water, pH 6, room temperature, 4 hours incubation

Row | SMILES | Fold increase in solubility [2] | SNAC concentration [3] | effect on SNAC solubility (FIG. 1) [1] | Fold increase in solubility (pH 6) | SNAC concentration (pH 6)
1 | O=C(O[C@@H]1Cc2c(O)cc(O)cc2O[C@@H]1c1cc(O)c(O)c(O)c1)c1cc(O)c(O)c(O)c1 [Epigallocatechin gallate] | 9.6 | 5.66 mg/mL |  |  | 
2 | CCN(CC)C(=O)c1cccnc1 [N,N diethyl nicotinamide] | 7.8 | 4.58 mg/mL |  |  | 
3 | CN(C)C(=O)c1ccccc1 [N,N dimethyl benzamide] | 38 | 22.46 mg/mL |  |  | 
4 | O=C([O-])c1ccccc1O.[Na+] [Sodium salicylate] |  |  |  | 2.7 | 1.59 mg/mL

Continued, in another order:

Row | Fold increase in solubility [2] | SNAC concentration [3] | effect on SNAC solubility (FIG. 1) [1] | SMILES | Fold increase in solubility (pH 6) | SNAC concentration (pH 6)
5 |  |  | dose dependent effect | NC(=O)c1cccnc1 [Nicotinamide] |  | 
6 | 1.3 | 0.77 mg/mL |  | NC(N)=O [Urea] |  | 

— US20220395559A1, “SOLID COMPOSITIONS COMPRISING A GLP-1 AGONIST, AN SGLT2 INHIBITOR AND A SALT OF N-(8-(2-HYDROXYBENZOYL)AMINO)CAPRYLIC ACID” (Novo Nordisk A/S, priority 2019, published 2022)
